The values below come from patent publication US10550115B2, “1, 4, 8-triazaphenanthrene derivatives for the treatment of neurodegenerative disorders” (Institut Du Cerveau et de la Moëlle Epiniere, priority 2015, dated 2020).

For data set [1], the system named is dopaminergic (TH+) neurons derived from primary cultures of embryonic ventral mesencephalon. The data set is described as follows: Spontaneous degeneration of dopaminergic neurons in primary cultures of embryonic ventral mesencephalon, TH+ neuron count at DIV 10. To be noted: for viability at 0.1 µM / viability at 1 µM / viability at 10 µM: Neuron, 240 h, read-out: TH+ neurons, % relative to the control ± standard error; for Neuroprotective activity, in words: survival percentage at 10 μM almost equal to that induced by db-cAMP at 1 mM. In kind it is cell-based. As for the experimental part:
The compounds of the invention were tested in a model of spontaneous degeneration of dopaminergic neurons derived from primary cultures of embryonic ventral mesencephalon according to the protocol described in the article by S. Guerreiro et a1. (2008). The primary cultures of embryonic ventral mesencephalon thus obtained are mixed cultures containing about 50% neuronal cells and 50% glial cells. Among the neuronal cells, dopaminergic neurons make up 3% of the total neurons, most of the neurons derived from these cultures being GABAergic. Concerning the glial cells, they mainly consist of astrocytes (>95% of the glial cells). These cultures are characterized by spontaneous, progressive and selective death of dopaminergic neurons as a result of a mechanism involving immature astrocytes and calcium dyshomeostasis (E. Rousseau et a1. (2013), D. Toulorge et a1. (2011)). The neuroprotective effect of the compounds of the invention was evaluated by counting dopaminergic (TH^+) neurons stained by tyrosine hydroxylase (TH) immunohistochemistry after 10 days of culture (DIV 10).

Data set [2] concerns mouse model of Parkinson's disease treated with MPTP. In words: MPTP mouse model of Parkinson's disease: striatum dopamine levels and dopamine turnover (HPLC, electrochemical detection). In kind it is in vivo. To be noted: MPTP mice. As for the experimental part:
(§1) The potential neuroprotective effects of Iac were evaluated by measuring striatum dopamine levels and dopamine turnover in the mouse model of Parkinson's disease treated with MPTP (1-methyl-4-phenyl-1,2,3,6-tetrahydropyridine), and by evaluating the number of dopaminergic neurons saved in the substantia nigra. Mice were treated with Iac (50 and 100 mg/kg, p.o., in 1% carboxymethyl cellulose and 0.5% Tween 80) for 11 consecutive days. MPTP (20 mg/kg; intraperitoneal route), or saline solution for the controls, was administered on treatment days 4 to 8. All mice were killed on day 12 following final administration of the treatment, then the striatal tissue was dissected for analysis. The effect of MPTP treatment on striatum dopamine depletion was analysed by high-pressure liquid chromatography (HPLC) in combination with electrochemical detection for measurement of levels of dopamine monoamine (DA), 3,4-dihydroxyphenylacetic acid (DOPAC), and homovanillic acid (HVA).

The nature of data set [3]: Aqueous solubility. To be noted: aqueous medium (not further specified). In kind it is physicochemical.
Data set [4] can be described thus: In vivo study of BBB crossing, HPLC-MS/MS of plasma and brain after IV injection. More on the design: species or system CD-1 mice. As for the experimental part: The goal of this study is to confirm, by HPLC coupled to mass spectrometry, the presence of compound Iac in the brain parenchyma after sub-chronic intravenous treatment in mice.
The study is performed with CD-1 mice.
A 0.5 mg/mL solution of compound Iac is prepared in physiological saline containing 10% Cremophor EL®. The same dose of this solution is administered intravenously to 6 mice (2 μL/g).
After 5 min, 3 mice are sacrificed. After 30 min, the other 3 mice are sacrificed.
Blood is drawn, and the plasma is separated by centrifugation. The brain is harvested after intracardiac perfusion. The samples are frozen and stored at −80° C. before treatment.
Plasma: 400 μL of each plasma sample is mixed with 1 mL of acetonitrile to precipitate proteins and extract compound Iac.
Brain: Each brain is ground in 400 μL of physiological saline. 800 μL of acetonitrile is added in order to extract compound Iac.
The treated samples are vortexed for 3 minutes and then placed in a sonicator again for 3 minutes. The precipitated proteins and the solid residues are sedimented by centrifugation (15,000 g, 5 minutes at 4° C.). The supernatants are transferred to a microplate to be analysed by HPLC-MS/MS.
Samples are analysed with the method described below, with detection and quantification, based on peak area, being performed by HPLC-MS/MS in MRM mode.
For the calculation of log [brain]/[plasma] to determine blood-brain barrier crossing, the mean plasma volume of a mouse is evaluated at 1.5 mL.

The subject of data set [5] is dopaminergic neurons of the substantia nigra. The data set is described as follows: MPTP mouse model of Parkinson's disease: survival of TH+ dopaminergic neurons in the substantia nigra. In kind it is in vivo. To be noted: MPTP/Iac mice. How it is done:
as §1
At the dose of 2×25 mg/kg/d (par os), the near-total survival of TH^+ neurons was observed. Indeed, in the group of mice treated with MPTP/Iac, survival was measured at 93±4% relative to the controls.

Where [6] appears, read: 50 mg/kg p.o., 11 consecutive days.
The mark [7] stands for this setting: 100 mg/kg p.o., 11 consecutive days.

For the compound `c1ccc2cc(-c3cnc4ccc5ncccc5c4n3)ccc2c1` [Iaj], in data set [1], the viability at 0.1 µM turned out to be 28.9 ± 1.8%; the viability at 1 µM amounted to 42.8 ± 2.1%; the viability at 10 µM amounted to 94.9 ± 3.5%; the “Neuroprotective activity, in words” value is listed as “particularly high activity”.

For the compound `Clc1cnc2ccc3ncccc3c2n1` [Iad], in data set [1], the viability at 0.1 µM turned out to be 27.4 ± 1.6%, the viability at 1 µM was 26.5 ± 1.6% and the viability at 10 µM came to 33.8 ± 1.8%.

Regarding `C#Cc1cnc2ccc3ncccc3c2n1` [Iak], in data set [1], the viability at 0.1 µM amounted to 38.2 ± 2.1%, the viability at 1 µM amounted to 40.7 ± 2.6% and the viability at 10 µM was 7 ± 1.3%.

As for `c1cnc2ccc3nccnc3c2c1` [Iaa], in data set [1], the viability at 0.1 µM was found to be 25.7 ± 1.6%, the viability at 1 µM amounted to 26.2 ± 1.7% and the viability at 10 µM stood at 30.6 ± 2.3%.

As for `c1ccc2ncc(-c3cnc4ccc5ncccc5c4n3)cc2c1` [Iam], in data set [1], the viability at 0.1 µM is 27.6 ± 2%; the viability at 1 µM was 46.7 ± 2.7%; the viability at 10 µM was determined as 97.3 ± 3.6%; the “Neuroprotective activity, in words” value is recorded as “particularly high activity”.

For the compound `c1cncc(-c2cnc3ccc4ncccc4c3n2)c1` [Iag], in data set [1], the viability at 0.1 µM came to 31.4 ± 1.7%; the viability at 1 µM was 48.3 ± 2.4%; the viability at 10 µM came out at 96.6 ± 4.5%; the “Neuroprotective activity, in words” value is recorded as “particularly high activity”.

Regarding `COc1cc(-c2cnc3ccc4ncccc4c3n2)cc(OC)c1OC` [Iaf], in data set [1], the viability at 0.1 µM was 27.7 ± 1.6%, the viability at 1 µM came to 46.8 ± 2.3% and the viability at 10 µM came to 70.8 ± 3.5%.

Take `Oc1cccc(-c2cnc3ccc4ncccc4c3n2)c1` [Iae]: in data set [1], the viability at 0.1 µM came out at 24.7 ± 1.6%; the viability at 1 µM was determined as 47.7 ± 2.6%; the viability at 10 µM was 99.3 ± 4.4%; the “Neuroprotective activity, in words” value was “particularly high activity”.

As a reminder, the solubility is the dissolved amount per volume that the medium holds. With `c1ccc(-c2cnc3ccc4ncccc4c3n2)cc1` [Iac, 3-phenyl-1,4,8-triazaphenanthrene], in data set [2] (setting [6]), the “Decrease in the (DOPAC+HVA)/DA ratio” value amounted to 30% and the “Increase of striatum DA levels” value is recorded as 64%. Further, in data set [2] (setting [7]), the “Decrease in the (DOPAC+HVA)/DA ratio” value worked out at 28%, the “Increase of striatum DA levels” value amounted to 78% and the “Increase of striatum HVA levels” value was found to be 25%. Further, the “Effect on DOPAC levels” value in data set [2] (50 and 100 mg/kg p.o.) is recorded as “no significant effect”. Moreover, the solubility in data set [3] is < 10 µg/mL. For the same compound, the “Amount (nmol/brain)” value in data set [4] (5 min after IV injection of 1 mg/kg, mice) is 5.19 ± 0.25 nmol/brain. Moreover, the “Amount (nmol/brain)” value in data set [4] (30 min after IV injection of 1 mg/kg, mice) is 0.50 ± 0.07 nmol/brain. Besides, in data set [4] (CD-1, brain and plasma, 5 min after IV injection of 1 mg/kg, mean plasma volume of a mouse evaluated at 1.5 mL, read-out: Log [brain]/[plasma]), the Kp at 5 min stood at 0.15 ± 0.05. Also, the Kp at 30 min in data set [4] (CD-1, brain and plasma, 30 min after IV injection of 1 mg/kg, mean plasma volume of a mouse evaluated at 1.5 mL, read-out: Log [brain]/[plasma]) was 0.02 ± 0.1. This compound registered a concentration at 5 min in data set [4] (CD-1, mouse, plasma, 5 min after IV injection of 1 mg/kg, mice) of 2470 ± 240 nM. This compound also had a concentration at 30 min in data set [4] (CD-1, mouse, plasma, 30 min after IV injection of 1 mg/kg, mice) of 320 ± 50 nM. In data set [4] (after intravenous administration), the “Blood-brain barrier crossing in vivo, in words” value is “able to cross the BBB”. Moreover, the “Survival of TH+ neurons relative to the controls” value in data set [5] (2×25 mg/kg/d per os) stood at 93±4%. For the same compound, the “Dopaminergic neuron survival relative to the controls” value in data set [5] (2×50 mg/kg/d per os) is 81±4%. For the same compound, in data set [1], the viability at 0.1 µM was 46.6 ± 2.8%; the viability at 1 µM amounted to 64.7 ± 2.9%; the viability at 10 µM was determined as 91 ± 3.7%; the “Neuroprotective activity, in words” value was “particularly high activity”. Besides, in data set [1] (in vitro), the “Activity (concentration showing neuroprotective activity in vitro)” value came to 1 µM and the “Concentration for optimal neuroprotective activity” value was 10 µM.

For the compound `Fc1ccc(-c2cnc3ccc4ncccc4c3n2)cc1` [Iah], in data set [1], the viability at 0.1 µM was 24.4 ± 1.4%, the viability at 1 µM was found to be 32.8 ± 1.8% and the viability at 10 µM stood at 42.8 ± 2.2%.

With `Cc1nc2ccc3ncccc3c2nc1-c1ccc2ccccc2c1` [Ibj], in data set [1], the viability at 0.1 µM was 58.1 ± 2.8%, the viability at 1 µM worked out at 59.2 ± 2.2% and the viability at 10 µM is 67.3 ± 2.5%.
